“Also recorded” adds a separate entry of the source.
Experiments:
DsKabA = target: T1, DsKabA (Digenea simplex, UniProt A0A4D6IA24); assay: DsKabA activity and substrate specificity assay (LCMS); assay type: biochemical; conditions: 23° C., 5 h, LCMS (FIG. 8); for turnover to N-prenylated product when L-glutamate is exchanged for another amino acid: 5 mM amino acid, 1 mM DMAPP, 5 mM MgCl2, 20 μM DsKabA
T1 construct: DsKabA p28 For; His6 (N); made in house; host or cells: E. coli BL-21
T1 sequence (A0A4D6IA24 1-439): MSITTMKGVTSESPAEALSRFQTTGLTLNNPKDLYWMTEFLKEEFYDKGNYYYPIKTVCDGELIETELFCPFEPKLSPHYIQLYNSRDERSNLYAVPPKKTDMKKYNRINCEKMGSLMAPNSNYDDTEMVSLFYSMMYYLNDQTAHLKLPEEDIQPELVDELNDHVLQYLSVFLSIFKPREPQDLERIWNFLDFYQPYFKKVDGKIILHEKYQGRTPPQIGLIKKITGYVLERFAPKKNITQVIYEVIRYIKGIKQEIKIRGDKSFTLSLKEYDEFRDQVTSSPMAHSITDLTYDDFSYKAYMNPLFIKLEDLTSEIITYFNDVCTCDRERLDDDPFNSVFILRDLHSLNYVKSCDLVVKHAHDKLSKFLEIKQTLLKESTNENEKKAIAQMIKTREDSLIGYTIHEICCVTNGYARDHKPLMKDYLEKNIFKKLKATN
Method: To test DsKabA activity and substrate specificity, a 50 μL reaction containing 5 mM MgCl2, 5 mM amino acid (L-Glu, D-Glu, L-Gln, L-Asp, L-Asn, or Gly), 1 mM prenyl donor (DMAPP or GPP), and 20 μM DsKabA in a buffer of 300 mM KCl and 50 mM HEPES pH 8.0 was incubated at 23° C. for 5 h. One equivalent of 0.1% formic acid in H2O was added and filtered with a VWR PES 3 k 500 μL spin column. The flow through was analyzed by an Agilent Technologies 1200 Series system with a diode-array detector coupled to an Agilent Technologies 6530 accurate-mass Q-TOF LCMS using the following method on a Synergi Polar-RP 4μ 250×4.6 mm column at 0.75 mL/min: 0% B (4.5 min), 0 to 5% B (0.5 min), 5 to 26% B (9 min), 26 to 80% B (9 min), 80 to 100% B (1 min), 100% B (1.5 min), 100 to 0% B (2.5 min), 0% B (2 min), wherein A=0.1% aqueous formic acid, and B=0.1% formic acid in acetonitrile.

[1] = humans in vivo; literature statement; cited from earlier work
[2] = system: ionotropic glutamate receptor (iGluR); conditions: literature statement; cited from earlier work

## N[C@H](CCC(=O)O)C(=O)O [D-glutamate]
DsKabA
  turnover to N-prenylated product when L-glutamate is exchanged for another amino acid: diminished turnover

## C/C(=C/C=C/[C@@H](C)C(=O)O)[C@H]1CN[C@H](C(=O)O)[C@H]1CC(=O)O [domoic acid]
[1]
  excitotoxic / neurological effects: causes severe neurological problems

## NC(=O)CC[C@H](N)C(=O)O [L-glutamine]
DsKabA
  turnover to N-prenylated product when L-glutamate is exchanged for another amino acid: did not produce appreciable amounts of N-prenylated product

## O=C(O)C[C@@H]1[C@@H](C(=O)O)NC[C@@H]1c1ccc(C(=O)O)[nH]c1=O [acromelic acid]
[2]
  iGluR bioactivity: iGluR agonistic bioactivity

## CC(C)=CCC/C(C)=C/COP(=O)(O)OP(=O)(O)O [GPP]
DsKabA; 1 mM prenyl donor with 5 mM L-glutamate, 20 μM DsKabA
  product formed when DMAPP is replaced by another prenyl donor: formation of N-geranyl-L-glutamic acid (L-NGG)

## NC(=O)C[C@H](N)C(=O)O [L-asparagine]
DsKabA
  turnover to N-prenylated product when L-glutamate is exchanged for another amino acid: did not produce appreciable amounts of N-prenylated product

## kainic acid lactone
[2]
  iGluR bioactivity: iGluR antagonist

## NCC(=O)O [glycine]
DsKabA
  turnover to N-prenylated product when L-glutamate is exchanged for another amino acid: did not produce appreciable amounts of N-prenylated product

## C=C(C)[C@H]1CN[C@H](C(=O)O)[C@H]1CC(=O)O [kainic acid]
[2]
  iGluR bioactivity: ionotropic glutamate receptor (iGluR) agonist; also recorded: agonistic activity
[1]
  excitotoxic / neurological effects: does not appear to produce excitotoxic effects

## N[C@@H](CC(=O)O)C(=O)O [L-aspartate]
DsKabA
  turnover to N-prenylated product when L-glutamate is exchanged for another amino acid: did not produce appreciable amounts of N-prenylated product

— patent publication US12365928B2, “Scalable biosynthesis of the seaweed neurochemical kainic acid” (The Regents of the University of California, priority 2018, dated 2025)
